In US20170129903A1, “COMPOUNDS COMPRISING 1,1a,2,5a-TETRAHYDROSPIRO[INDOLE-3,2a-PYRROLE]-2,5a-DIONE SYSTEM AS INHIBITORS P53-MDM2 PROTEIN-PROTEIN INTERACTION” (ADAMED SP. Z O.O., priority 2014, published 2017):

Assays:
[1] = target: T1, p53-Mdm2 interaction (N-terminal domain of Mdm2 protein, amino acids 1-111) (Homo sapiens, UniProt Q00987); experiment: Fluorescence polarization (FP) binding assay of p53-Mdm2 interaction; conditions: FP assay, 130 nM Mdm2, FAM-labelled p53 peptide; Ki transformed from IC50 using Kenakin equation
T1 construct: N-terminal domain of Mdm2 protein (amino acids 1-111)
Protocol: The inhibition of p53-Mdm2 interaction was measured using a fluorescence polarization (FP) binding assay. FP measures the rotational movement of molecules in a homogenous suspension. For this assay, N-terminal domain of Mdm2 protein (amino acids 1-111) is combined with a fluorescein-labelled (FAM) peptide derived from p53 trans-activation domain. Upon excitation of the fluorescent ligand with linearly polarized light, […]. If the peptide is bound by Mdm2, rotation will slow down and the perpendicular component will decrease. Disruption of the formation of the peptide-Mdm2 complex due to an inhibitor molecule binding to the p53 binding site of Mdm2 results in faster rotation of the peptide.
Fluorescence polarization experiments were read on Tecan Infinite M1000 reader with the 470 nm excitation and 520 nm emission filters for fluorescein. The fluorescence polarization was measured in black 96-well plates (Corning, CLS3991) in room temperature. Purity of Mdm2 was controlled at >95%. Reaction buffer was optimized by adding 5 mM DTT and 0.1% zwitterionic detergent CHAPS to reduce effect of nonspecific interactions.
The test was performed by combining successive dilution of compounds diluted in dimethyl sulfoxide (DMSO, 5% final concentration) with 130 nM Mdm2 in reaction buffer (PBS, 0.1% CHAPS, 5 mM DTT (dithiothreitol)). After 15 minutes of incubation in room temperature […] FAM-labelled peptide was added. Final reading was performed after 90 minutes of incubation. Dose-dependent binding curves and IC50 values were calculated using GraphPad Prism5 and next transformed to Ki values using Kenakin equation.

[2] = tested on: SJSA-1 osteosarcoma cell line; experiment: MTT cell viability assay; type: cell-based; conditions: Homo sapiens, SJSA-1, 72 h, 72 h incubation, average of 2-5 experiments
Protocol: The effect of the invented p53-Mdm2 inhibitors on cell viability has been assessed using MTT assay. It is a colorimetric assay that measures conversion of tetrazolium ring of the soluble yellow dye (MTT) into insoluble purple formazan. This process is catalysed solely in mitochondrial dehydrogenases of living cells.
Cells were seeded on 96-well plates and then treated with successive dilutions of tested compounds. After 72 h incubation, MTT was added to the final concentration 0.5 mg/ml. The cells were further incubated for the next 4 h. Then the solution was drained and the remaining formazan crystals were dissolved in 100 μl DMSO. […] All the MTT experiments were independently repeated 2-5 times. Dose-dependent binding curves and IC50 values were calculated using GraphPad Prism 5.

T1 sequence (Q00987 1-111): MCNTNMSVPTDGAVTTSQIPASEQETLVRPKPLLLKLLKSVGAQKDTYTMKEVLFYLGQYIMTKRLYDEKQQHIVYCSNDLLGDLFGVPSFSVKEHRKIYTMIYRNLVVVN

| Ki [1] | IC50 [2] | SMILES |
| --- | --- | --- |
| 45 nM | 10.8 µM | Cc1ccc(Cl)cc1N1C(=O)c2n[nH]c(C3(C)CC3)c2C12C(=O)Nc1cc(Cl)ccc12 (stereo not shown) [Compound 18, 6-chloro-5′-(5-chloro-2-methylphenyl)-3′-(1-methylcyclopropyl)-1,2,5′,6′-tetrahydro-2′H-spiro[indole-3,4′-pyrrolo [3,4-c]pyrazole]-2,6′-dione] |
| 64 nM | 22.3 µM | CC1(c2[nH]nc3c2C2(C(=O)Nc4cc(Cl)ccc42)N(c2cccc(Cl)c2)C3=O)CC1 (stereo not shown) [Compound 19, 6-chloro-5′-(3-chlorophenyl)-3′-(1-methylcyclopropyl)-1,2,5′,6′-tetrahydro-2′H-spiro[indole-3,4′-pyrrolo[3,4-c]pyrazole]-2,6′-dione] |
| 24 nM | 21.2 µM | CC(C)(C)c1[nH]nc2c1C1(C(=O)Nc3cc(Cl)ccc31)N(c1cccc(Cl)c1)C2=O (stereo not shown) [Compound 20, 3′-tert-butyl-6-chloro-5′-(3-chlorophenyl)-1,2,5′,6′-tetrahydro-2′H-spiro[indole-3,4′-pyrrolo[3,4-c]pyrazole]-2,6′-dione] |
| 70 nM | 15.1 µM | COc1ccc(Cl)cc1N1C(=O)c2n[nH]c(C(C)(C)C)c2C12C(=O)Nc1cc(Cl)ccc12 (stereo not shown) [Compound 21, 3′-tert-butyl-6-chloro-5′-(5-chloro-2-methoxyphenyl)-1,2,5′,6′-tetrahydro-2′H-spiro[indole-3,4′-pyrrolo[3,4-c]pyrazole]-2,6′-dione] |
| 120 nM | 6.95 µM | COc1ccc(Cl)cc1N1C(=O)c2n[nH]c(C3(C)CC3)c2C12C(=O)Nc1cc(Cl)ccc12 (stereo not shown) [Compound 22, 6-chloro-5′-(5-chloro-2-methoxyphenyl)-3′-(1-methylcyclopropyl)-1,2,5′,6′-tetrahydro-2′H-spiro[indole-3,4′-pyrrolo [3,4-c]pyrazole]-2,6′-dione] |
| 20 nM | 10.2 µM | Cc1ccc(Cl)cc1N1C(=O)c2n[nH]c(C(C)C)c2C12C(=O)Nc1cc(Cl)ccc12 (stereo not shown) [Compound 23, 6-chloro-5′-(5-chloro-2-methylphenyl)-3′-(propan-2-yl)-1,2,5′,6′-tetrahydro-2′H-spiro[indole-3,4′-pyrrolo[3,4-c]pyrazole]-2,6′-dione] |
| 54 nM | 33.5 µM | CC(C)c1[nH]nc2c1C1(C(=O)Nc3cc(Cl)ccc31)N(c1cc(Cl)ccc1O)C2=O (stereo not shown) [Compound 24, 6-chloro-5′-(5-chloro-2-hydroxyphenyl)-3′-(propan-2-yl)-1,2,5′,6′-tetrahydro-2′H-spiro[indole-3,4′-pyrrolo[3,4-c]pyrazole]-2,6′-dione] |
| 94 nM | 10.2 µM | COc1ccc(Cl)cc1N1C(=O)c2n[nH]c(C(C)C)c2C12C(=O)Nc1cc(Cl)ccc12 (stereo not shown) [Compound 25, 6-chloro-5′-(5-chloro-2-methoxyphenyl)-3′-(propan-2-yl)-1,2,5′,6′-tetrahydro-2′H-spiro[indole-3,4′-pyrrolo[3,4-c]pyrazole]-2,6′-dione] |
| 23 nM | 4.91 µM | COc1ccccc1-n1nc2c(c1C1(C)CC1)C1(C(=O)Nc3cc(Cl)ccc31)N(c1cccc(Cl)c1)C2=O (stereo not shown) [Compound 26, 6-chloro-5′-(3-chlorophenyl)-2′-(2-methoxyphenyl)-3′-(1-methylcyclopropyl)-1,2,5′,6′-tetrahydro-2′H-spiro[indole-3,4′-pyrrolo[3,4-c]pyrazole]-2,6′-dione] |
| 4.3 nM | 1.07 µM | COc1ccccc1-n1nc2c(c1C(C)C)C1(C(=O)Nc3cc(Cl)ccc31)N(c1cccc(Cl)c1)C2=O (stereo not shown) [Compound 27, 6-chloro-5′-(3-chlorophenyl)-2′-(2-methoxyphenyl)-3′-(propan-2-yl)-1,2,5′,6′-tetrahydro-2′H-spiro[indole-3,4′-pyrrolo [3,4-c]pyrazole]-2,6′-dione] |
| 1460 nM | 32 µM | CC1(c2c3c(nn2CC2CCCN2)C(=O)N(c2cccc(Cl)c2)C32C(=O)Nc3cc(Cl)ccc32)CC1 (stereo not shown) [Compound 28, 6-chloro-5′-(3-chlorophenyl)-3′-(1-methylcyclopropyl)-2′-(pyrrolidin-2-ylmethyl)-1,2,5′,6′-tetrahydro-2′H-spiro [indole-3,4′-pyrrolo[3,4-c]pyrazole]-2,6′-dione] |
| 358 nM | 48.8 µM | CN(C)C(=O)C1CCCC1Cn1nc2c(c1C1(C)CC1)C1(C(=O)Nc3cc(Cl)ccc31)N(c1cccc(Cl)c1)C2=O (stereo not shown) [Compound 29, 2-[6-chloro-5′-(3-chlorophenyl)-3′-(1-methylcyclopropyl)-2,6′-dioxo-1,2,5′,6′-tetrahydro-2′H-spiro[indole-3,4′-pyrrolo [3,4-c]pyrazole]-2′-ylmethyl]-N,N-dimethylcyclopentane-1-carboxamide] |
| 120 nM | – | COc1cccc(OC)c1-n1nc2c(c1C(C)C)C1(C(=O)Nc3cc(Cl)ccc31)N(c1cc(Cl)ccc1C)C2=O (stereo not shown) [Compound 70, 6-chloro-5′-(5-chloro-2-methylphenyl)-2′-(2,6-dimethoxyphenyl)-3′-(propan-2-yl)-1,2,5′,6′-tetrahydro-2′H-spiro[indole-3,4′-pyrrolo[3,4-c]pyrazole]-2,6′-dione] |
| 3.6 nM | – | COc1ccc(C(N)=O)cc1-n1nc2c(c1C(C)C)C1(C(=O)Nc3cc(Cl)ccc31)N(c1cc(Cl)ccc1O)C2=O (stereo not shown) [Compound 75, 3-[6-chloro-5′-(5-chloro-2-hydroxy-phenyl)-2,6′-dioxo-3′-(propan-2-yl)-1,2,5′,6′-tetrahydro-2′H-spiro[indole-3,4′-pyrrolo[3,4-c]pyrazole]-2′-yl]-4-methoxybenzamide] |
| 3.6 nM | – | COc1ccc(C(=O)O)cc1-n1nc2c(c1C(C)C)C1(C(=O)Nc3cc(Cl)ccc31)N(c1cc(Cl)ccc1O)C2=O (stereo not shown) [Compound 76, 3-[6-chloro-5′-(5-chloro-2-hydroxy-phenyl)-2,6′-dioxo-3′-(propan-2-yl)-1,2,5′,6′-tetrahydro-2′H-spiro[indole-3,4′-pyrrolo[3,4-c]pyrazole]-2′-yl]-4-methoxybenzoic acid] |
| 425 nM | – | CC(C)c1[nH]nc2c1C1(C(=O)Nc3cc(Cl)ccc31)N(c1cc(Cl)ccn1)C2=O (stereo not shown) [Compound 82, 6-chloro-5′-(4-chloropyridin-2-yl)-3′-(propan-2-yl)-1,2,5′,6′-tetrahydro-2′H-spiro [indole-3,4′-pyrrolo[3,4-c]pyrazole]-2,6′-dione] |
| 152 nM | – | CC(C)c1[nH]nc2c1C1(C(=O)Nc3cc(Cl)ccc31)N(c1cncc(Cl)c1)C2=O (stereo not shown) [Compound 83, 6-chloro-5′-(5-chloropyridin-3-yl)-3′-(propan-2-yl)-1,2,5′,6′-tetrahydro-2′H-spiro [indole-3,4′-pyrrolo[3,4-c]pyrazole]-2,6′-dione] |
| 5.3 nM | – | COc1ccccc1-n1cc2c(c1C(C)C)C1(C(=O)Nc3cc(Cl)ccc31)N(c1cccc(Cl)c1)C2=O (stereo not shown) [Compound 89, 6-chloro-2′-(3-chlorophenyl)-5′-(2-methoxyphenyl)-6′-(propan-2-yl)-1,2,3′,5′-tetrahydro-2′H-spiro[indole-3,1′-pyrrolo [3,4-c]pyrrole]-2,3′-dione] |
| 4.5 nM | – | COc1ccccc1-n1cc2c(c1C(C)C)C1(C(=O)Nc3cc(Cl)ccc31)N(c1cc(Cl)ccc1N)C2=O (stereo not shown) [Compound 91, 2′-(2-amino-5-chlorophenyl)-6-chloro-5′-(2-methoxyphenyl)-6′-(propan-2-yl)-1,2,3′,5′-tetrahydro-2′H-spiro[indole-3,1′-pyrrolo[3,4-c]pyrrole]-2,3′-dione] |
